Source: US20150185215A1, “Cell-Based Assays For Post-Translational Enzyme Activity” (Cell Assay Innovations, Inc., priority 2012, published 2015)
pIC50: −log10 of the molar value.

Biological target: lck (Homo sapiens, UniProt P06239)
Assay: cell-based

lck, sequence (P06239 whole entry): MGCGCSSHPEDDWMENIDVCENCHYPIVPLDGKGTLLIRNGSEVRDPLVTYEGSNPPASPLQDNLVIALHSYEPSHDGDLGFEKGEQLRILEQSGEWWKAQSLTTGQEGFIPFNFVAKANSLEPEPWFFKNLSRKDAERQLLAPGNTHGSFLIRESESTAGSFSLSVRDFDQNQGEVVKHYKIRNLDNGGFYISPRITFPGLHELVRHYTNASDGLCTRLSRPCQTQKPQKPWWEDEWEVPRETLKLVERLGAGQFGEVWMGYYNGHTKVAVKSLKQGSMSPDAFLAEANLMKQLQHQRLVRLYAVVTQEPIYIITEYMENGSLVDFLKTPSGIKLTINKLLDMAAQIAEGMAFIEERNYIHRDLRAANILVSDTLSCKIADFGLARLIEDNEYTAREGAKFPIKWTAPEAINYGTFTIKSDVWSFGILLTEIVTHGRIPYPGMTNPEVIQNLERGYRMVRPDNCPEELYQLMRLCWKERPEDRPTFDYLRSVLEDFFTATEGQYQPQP

`N#CC(=C(/N)Sc1ccccc1N)/C(C#N)=C(\N)Sc1ccccc1N` [U0126] gave a pIC50 of under 4.52.
